Measured values as given in US11807835B2, “Detergent compositions containing a stabilized enzyme by phosphonates” (ECOLAB USA INC., priority 2016, dated 2023).

Test system: lipase
Test: Lipase activity retention in detergent use solution (4000 ppm, 5 GPG water; p-nitrophenyl valerate, TRIS buffer pH 8.0)
Format: biochemical
Settings: for Relative Lipase Enzyme Activity in a Use Solution: Table 6E, room temperature; for Relative Lipase Enzyme Activity in a Use Solution of the All Ash Detergent Composition: Table 6F, all ash formula, 120º F.; for Relative Lipase Enzyme Activity: base formula
Method: The enzyme […] collected up to 4 hours, after a use solution was generated from the detergent composition. During the tests, the samples at different time points were collected and immediately frozen in an acetone/dry ice bath and stored in −80° C. before the activity of the enzyme was evaluated. For the use of such an assay, t=0 min was the reference point for 100% enzyme activity.
Assays of enzyme activity in formulations (% retention) were conducted to simulate a presoak condition in a beaker using the chemistry, temperature, and pH conditions relevant to manual warewash or presoak applications. Enzyme activity is an indicator of the stability of the enzyme in the detergent, specifically in an aqueous use solution within a sump (which is under conditions of high pH, temperature and dilution).
Enzyme activity under presoak or manual warewash conditions was traced quantitatively using a standard protease assay. Samples were prepared under bench top conditions, whereby the use solution from a detergent composition or detergent was obtained and maintained at a presoak or manual warewash temperature in a stirring water bath. After the time course for assessing enzyme stability is initiated, aliquots were taken at various time points and flash-frozen. A time=0 sample was prepared for each series by dissolving the detergent formulation at room temperature, mixing thoroughly, and flash freezing. Samples were thawed and diluted as necessary in an assay buffer usually for use in the protease assay. A glycine buffer at pH 9.0 is used here. The assay monitored the direct reaction of the protease on a small, commercially available peptidyl substrate, with liberation of the product providing correlation to the active enzyme content. The product was detected using a plate reader with an appreciable dynamic range (upper absorbance limit of the instrument >3.5). Enzyme activity levels were assessed relative to a calibration curve with average values for replicate tests used to map protease stability under presoak or manual warewash use conditions. Enzyme retention at each time point was calculated as the % enzyme activity relative to the time=0 sample.
The analysis by lipase and amylase assay was conducted similarly, except with a different substrate and buffers. For lipase activity, the substrate is p-nitrophenyl valerate, and for amylase, the substrate is an ethylidene substrate (EPS). The buffer used in lipase assay is TRIS (Tris(hydroxymethyl)aminomethane) buffer at pH 8.0, and in amylase assay HEPES (4-(2-hydroxyethyl)-1-piperazineethanesulfonic acid) buffer at pH 8.0.

[1] = phosphonate 0.3 wt-%, time 60 min
[2] = phosphonate 0.3 wt-%, time 90 min
[3] = phosphonate 0.3 wt-%, time 120 min
[4] = phosphonate 0.3 wt-%, time 150 min
[5] = phosphonate 0.3 wt-%, time 180 min
[6] = phosphonate 0.3 wt-%, time 210 min
[7] = phosphonate 0.3 wt-%, time 240 min

For CC(O)(P(=O)(O)O)P(=O)(O)O [HEDP, 1-hydroxy ethylidene-1,1-diphosphonic acid], the “Relative Lipase Enzyme Activity in a Use Solution” value [1] was 89.82%, the “Relative Lipase Enzyme Activity in a Use Solution” value [2] was 104.91% and the “Relative Lipase Enzyme Activity in a Use Solution” value [3] was 100.99%. For the same molecule, the “Relative Lipase Enzyme Activity in a Use Solution” value [4] was 100.18%, the “Relative Lipase Enzyme Activity in a Use Solution” value [5] was 100.45% and the “Relative Lipase Enzyme Activity in a Use Solution” value [6] was 98.87%. The “Relative Lipase Enzyme Activity in a Use Solution” value [7] was 99.95%, the “Relative Lipase Enzyme Activity in a Use Solution of the All Ash Detergent Composition” value (phosphonate 0.3 wt-%, time 0 min) was 100.00% and the “Relative Lipase Enzyme Activity in a Use Solution of the All Ash Detergent Composition” value (phosphonate 0.3 wt-%, time 5 min) was 39.01%. The “Relative Lipase Enzyme Activity in a Use Solution of the All Ash Detergent Composition” value (phosphonate 0.3 wt-%, time 10 min) was 21.35%, the “Relative Lipase Enzyme Activity in a Use Solution of the All Ash Detergent Composition” value (phosphonate 0.3 wt-%, time 20 min) was 7.45% and the “Relative Lipase Enzyme Activity in a Use Solution of the All Ash Detergent Composition” value (phosphonate 0.3 wt-%, time 40 min) was 0.88%. For the same molecule, the “Relative Lipase Enzyme Activity in a Use Solution of the All Ash Detergent Composition” value [1] was −0.91%, the “Relative Lipase Enzyme Activity in a Use Solution of the All Ash Detergent Composition” value [2] was −1.68% and the “Relative Lipase Enzyme Activity in a Use Solution of the All Ash Detergent Composition” value [3] was −1.38%. The “Relative Lipase Enzyme Activity in a Use Solution of the All Ash Detergent Composition” value [4] was −1.94%, the “Relative Lipase Enzyme Activity in a Use Solution of the All Ash Detergent Composition” value [5] was −4.15% and the “Relative Lipase Enzyme Activity in a Use Solution of the All Ash Detergent Composition” value [6] was −4.41%. For the same molecule, the “Relative Lipase Enzyme Activity in a Use Solution of the All Ash Detergent Composition” value [7] was −3.60%, the “Relative Lipase Enzyme Activity” value (phosphonate 0.3 wt-%, use solution at 120° F., time 0 min) was 100.00% and the “Relative Lipase Enzyme Activity” value (phosphonate 0.3 wt-%, use solution at 120° F., time 5 min) was 47.15%. For the same molecule, the “Relative Lipase Enzyme Activity” value (phosphonate 0.3 wt-%, use solution at 120° F., time 10 min) was 44.35%, the “Relative Lipase Enzyme Activity” value (phosphonate 0.3 wt-%, use solution at 120° F., time 20 min) was 34.94% and the “Relative Lipase Enzyme Activity” value (phosphonate 0.3 wt-%, use solution at 120° F., time 40 min) was 23.40%. For the same molecule, the “Relative Lipase Enzyme Activity” value (phosphonate 0.3 wt-%, use solution at 120° F., time 60 min) was 17.75%, the “Relative Lipase Enzyme Activity” value (phosphonate 0.3 wt-%, use solution at 120° F., time 90 min) was 11.06% and the “Relative Lipase Enzyme Activity” value (phosphonate 0.3 wt-%, use solution at 120° F., time 120 min) was 6.92%. The “Relative Lipase Enzyme Activity” value (phosphonate 0.3 wt-%, use solution at 120° F., time 150 min) was 5.38%, the “Relative Lipase Enzyme Activity” value (phosphonate 0.3 wt-%, use solution at 120° F., time 180 min) was 2.90% and the “Relative Lipase Enzyme Activity” value (phosphonate 0.3 wt-%, use solution at 120° F., time 210 min) was 2.62%. The “Relative Lipase Enzyme Activity” value (phosphonate 0.3 wt-%, use solution at 120° F., time 240 min) was 2.32%, the “Relative Lipase Enzyme Activity” value (phosphonate 0.6 wt-%, use solution at 120º F., time 0 min) was 100.00% and the “Relative Lipase Enzyme Activity” value (phosphonate 0.6 wt-%, use solution at 120º F., time 5 min) was 62.99%. The “Relative Lipase Enzyme Activity” value (phosphonate 0.6 wt-%, use solution at 120º F., time 10 min) was 59.92%, the “Relative Lipase Enzyme Activity” value (phosphonate 0.6 wt-%, use solution at 120º F., time 20 min) was 48.34% and the “Relative Lipase Enzyme Activity” value (phosphonate 0.6 wt-%, use solution at 120º F., time 40 min) was 33.30%. For the same molecule, the “Relative Lipase Enzyme Activity” value (phosphonate 0.6 wt-%, use solution at 120º F., time 60 min) was 23.22%, the “Relative Lipase Enzyme Activity” value (phosphonate 0.6 wt-%, use solution at 120º F., time 90 min) was 17.91% and the “Relative Lipase Enzyme Activity” value (phosphonate 0.6 wt-%, use solution at 120º F., time 120 min) was 14.72%. For the same molecule, the “Relative Lipase Enzyme Activity” value (phosphonate 0.6 wt-%, use solution at 120º F., time 150 min) was 12.63%, the “Relative Lipase Enzyme Activity” value (phosphonate 0.6 wt-%, use solution at 120º F., time 180 min) was 7.01% and the “Relative Lipase Enzyme Activity” value (phosphonate 0.6 wt-%, use solution at 120º F., time 210 min) was 8.08%. The “Relative Lipase Enzyme Activity” value (phosphonate 0.6 wt-%, use solution at 120º F., time 240 min) was 5.20%, the “Relative Lipase Enzyme Activity” value (phosphonate at 0.1% elemental phosphorus, at 120º F. or at room temperature (as titled), time 0 min) was 100.00% and the “Relative Lipase Enzyme Activity” value (phosphonate at 0.1% elemental phosphorus, at 120º F. or at room temperature (as titled), time 5 min) was 79.12%. For the same molecule, the “Relative Lipase Enzyme Activity” value (phosphonate at 0.1% elemental phosphorus, at 120º F. or at room temperature (as titled), time 10 min) was 67.70%, the “Relative Lipase Enzyme Activity” value (phosphonate at 0.1% elemental phosphorus, at 120º F. or at room temperature (as titled), time 20 min) was 51.16% and the “Relative Lipase Enzyme Activity” value (phosphonate at 0.1% elemental phosphorus, at 120º F. or at room temperature (as titled), time 40 min) was 25.69%. For the same molecule, the “Relative Lipase Enzyme Activity” value (phosphonate at 0.1% elemental phosphorus, at 120º F. or at room temperature (as titled), time 60 min) was 19.99%, the “Relative Lipase Enzyme Activity” value (phosphonate at 0.1% elemental phosphorus, at 120º F. or at room temperature (as titled), time 90 min) was 16.10% and the “Relative Lipase Enzyme Activity” value (phosphonate at 0.1% elemental phosphorus, at 120º F. or at room temperature (as titled), time 120 min) was 13.04%. The “Relative Lipase Enzyme Activity” value (phosphonate at 0.1% elemental phosphorus, at 120º F. or at room temperature (as titled), time 150 min) was 11.14%, the “Relative Lipase Enzyme Activity” value (phosphonate at 0.1% elemental phosphorus, at 120º F. or at room temperature (as titled), time 180 min) was 9.12% and the “Relative Lipase Enzyme Activity” value (phosphonate at 0.1% elemental phosphorus, at 120º F. or at room temperature (as titled), time 210 min) was 7.99%. The “Relative Lipase Enzyme Activity” value (phosphonate at 0.1% elemental phosphorus, at 120º F. or at room temperature (as titled), time 240 min) was 7.70%.
